Assay results reported in patent US7416724B2, “Diagnosis and treatment of diseases arising from defects in the tuberous sclerosis pathway” (The Regents of the University of Michigan, priority 2002, dated 2008).
“Also recorded” adds a separate entry of the source. Where two headings read alike, the source gives them in different places.

Key:
[1] = test system: S6K; experiment: Phosphorylation of S6K, immunoblot with anti-phospho S6K antibody; assay type: cell-based; details: for phosphorylation of S6K on T389: endogenous S6K
Source text: (§1) Anti-S6K, anti-phospho S6K, anti-mTOR, anti-phospho mTOR, anti-Akt, anti-phospho Akt, antiphospho 4EBP-1 and anti-phospho ERK antibodies were from Cell Signalling Inc. Anti-TSC2 and anti-Myc antibodies were from Santa Cruz Biotechnology (Santa Cruz, Calif.). Anti-HA and anti-Flag antibodies were from Covance (Princeton, N.J.) and Sigma (St Louis, Mo.), respectively. HA-tagged S6K1 (II) and GST-S6 constructs were obtained from J. Blenis (Columbia Univ., NY, N.Y.). […] All other DNA constructs, including H-RasV12, PTEN, PTEN-CS, Akt, Akt-KM, Flag-ubiquitin and Flag-4E-BP1, were laboratory stock. All mutant constructs of TSC2 were created by PCR mutagenesis and verified by DNA sequencing. LY294002 was from Calbiochem (San Diego, Calif.); phosphatase was from New England Biolabs (Beverly, Mass.). MG132 was from the Peptide Institute. Cycloheximide and wortmannin were from Sigma. D-PBS was from Gibco. Rapamycin was from Cell Signalling.
(§2) HEK293 cells were seeded and maintained in Dulbecco's modified Eagle's medium (DMEM) containing 10% fetal bovine serum (FBS). Transfection was performed in serum-free conditions using Lipofectamine reagent (Invitrogen, Carlsbad, Calif.) in accordance with the manufacturer's instructions. In brief, 4 h after transfection, the cells were recovered in DMEM containing 10% FBS for 16 h and then starved for […]. Cells were then lysed in lysis buffer (10 mM Tris-HCl at pH 7.5, 100 mM sodium chloride, 1% NP-40, 1% Triton X-100, 50 mM sodium fluoride, 2 mM EDTA, 1 mM phenyl methylsulphonyl fluoride, 10 g ml^−1 leupeptin and 10 g ml^−1 aprotinine) and immunoprecipitated with the indicated antibodies and protein G-Sepharose beads. Immunocomplexes were analyzed by SDS-polyacrylamide gel electrophoresis (PAGE).

[2] = test system: 4EBP1; experiment: Phosphorylation of 4EBP1, immunoblot; assay type: cell-based
Source text: as §1, §2

[3] = test system: S6; experiment: Phosphorylation of S6, immunoblot; assay type: cell-based; details: FIG. 8C
Protocol: as §2

[4] = test system: mTOR; experiment: Phosphorylation of mTOR at Ser 2448, immunoblot with anti-phospho-mTOR antibody; assay type: cell-based; details: 25 mM, FIG. 8C
Source text: as §1
(§3) HEK293 cells were seeded and maintained in Dulbecco's modified Eagle's medium (DMEM) containing 10% fetal bovine serum (FBS). Transfection was performed in serum-free conditions using Lipofectamine reagent (Invitrogen, Carlsbad, Calif.) in accordance with the manufacturer's instructions. […] Immunocomplexes were analyzed by SDS-polyacrylamide gel electrophoresis (PAGE).

[5] = test system: Akt; experiment: Phosphorylation of Akt, immunoblot; assay type: cell-based
Source text: as §1, §3

[6] = test system: AMPK; experiment: AMPK activation (T172 phosphorylation); assay type: cell-based; details: 25 mM
[7] = test system: TSC2; experiment: TSC2 mobility shift on SDS-PAGE; assay type: cell-based; details: for mobility of TSC2 / 2-DG induced mobility shift: HEK293 cells, 10 μM, added 30 minutes before 2-DG, FIG. 11C
Protocol: as §2

[8] = test system: TSC2; experiment: In vivo 32P-labelling and two-dimensional phosphopeptide mapping of TSC2; assay type: cell-based, rat
Protocol: HEK293 cells were cotransfected with HA-tagged TSC2, Myc-tagged TSC1 and the indicated plasmids. Cells were phosphate- and serum-starved for 4 h before incubation with 0.25 mCi ml^−1 32P-orthophosphate (ICN) for 4 h.
Cells were washed once with ice-cold PBS and lysed. HA-tagged TSC2 was immunoprecipitated, resolved by SDS-PAGE and transferred to a PVDF membrane. Phosphorylated TSC2 was visualized by autoradiography and phosphopeptide mapping was then performed. In brief, the phosphorylated TSC2 bands were excised, fixed in methanol and incubated in 500 1 of 0.5% polyvinylpyrrolidone-40 dissolved in 100 mM acetic acid for 30 min at 37° C. The sample were then digested with 20 g of TPCK-treated trypsin (Sigma) at 37° C. in 75 mM ammonium bicarbonate buffer at pH 8.0 containing 5% acetonitrile. After digestion, samples were dried under vacuum and suspended in 10 1 of water. Samples were spotted onto a cellulose plate and first dimensional electrophoresis was performed using 1% ammonium bicarbonate buffer at pH 8.9. The plates were separated by chromatography in the second dimension in chromatography buffer (n-butanol:pyridine:acetic acid:water; 20:24:6:30). The plates were dried and phosphopeptides were visualized by autoradiography.

[9] = test system: intracellular ATP; experiment: Intracellular ATP levels and AMP/ATP ratio; assay type: cell-based; details: cells treated with 25 mM
[10] = test system: AMPK and TSC2; experiment: Co-immunoprecipitation of AMPK and TSC2; assay type: cell-based
Protocol: as §2

[11] = test system: HEK293 cells; experiment: Cell size of HEK293 cells; assay type: cell-based; details: 12.5 mM 2-DG, TSC2 RNAi, or 20 nM rapamycin for 72 hours, FIG. 14D
[12] = test system: TSC1; experiment: TSC1 mobility on SDS-PAGE; assay type: cell-based; details: FIG. 11A
Protocol: as §2

[13] = test system: S6K; details: concentrations between 20 and 100 mM (Dennis et al., 2001); cited from earlier work
[14] = test system: 4EBP1; details: concentrations between 20 and 100 mM (Dennis et al., 2001); cited from earlier work
[15] = test system: AMPK; details: Corton et al., 1995; cited from earlier work
[16] = test system: intracellular ATP; details: concentrations between 20 and 100 mM (Dennis et al., 2001); cited from earlier work
[17] = test system: eukaryotic elongation factor 2 (eEF2); details: Horman et al., 2002; cited from earlier work
[18] = test system: S6K; details: Kimura et al., 2003; Krause et al., 2002; cited from earlier work
[19] = test system: LEF (TSC2-/- epithelial) cells; experiment: Cell death / apoptosis of LEF cells; assay type: cell-based; details: vector and wild type TSC2 expressing LEF cells
[20] = test system: S6K-dC104; experiment: Thr 389 phosphorylation and kinase activity of rapamycin-resistant mutant S6K-dC104; assay type: cell-based; details: FIG. 7a
Protocol: For the S6K assays, HEK293 cells grown in six-well plates were transfected with 10-20 ng HA-S6K constructs, with or without various plasmids, as indicated in the figures. HA-S6K was immunoprecipitated from serum-starved cells with an anti-HA antibody and analyzed by in vitro kinase assay using purified GST-S6 as a substrate (Pearson et al., EMBO J. 14, 5279-5287 (1995)).

[21] = EEF8 (TSC2-/-) fibroblasts, vector infected, FIG. 13C
[22] = EEF8 cells expressing wild type TSC2, FIG. 13C
[23] = depletion of cellular ATP, FIG. 8A

Question: For `O=CC[C@@H](O)[C@H](O)[C@H](O)CO` [2-DG, 2-deoxy-glucose], which “phosphorylation of S6K on T389” value ([1]; 25 mM, FIG. 8C) is on record?
Answer: effectively inhibited; also recorded: dephosphorylation

Question: And the “S6K phosphorylation as a function of treatment time” value ([1]; 25 mM, time course, FIG. 8E)?
Answer: concomitant dephosphorylation

Question: What about the S6K phosphorylation [1, 21] of the same compound?
Answer: caused little decrease

Question: And the S6K phosphorylation [1, 22]?
Answer: significantly decreased

Question: And the “phosphorylation of S6K” value [1, 23]?
Answer: caused a dephosphorylation

Question: What about the 4EBP1 phosphorylation ([2]; EEF4 (TSC2+/+) cells, FIG. 10G) of the same compound?
Answer: inhibition of phosphorylation

Question: And the 4EBP1 phosphorylation [2, 21]?
Answer: caused little decrease

Question: What about the 4EBP1 phosphorylation [2, 22] of the same compound?
Answer: significantly decreased

Question: And the “phosphorylation of endogenous 4EBP1” value ([2]; FIG. 8C)?
Answer: specifically inhibits; also recorded: dephosphorylation

Question: And the “phosphorylation of 4EBP1” value [2, 23]?
Answer: caused a dephosphorylation

Question: And the “phosphorylation of endogenous S6” value [3]?
Answer: dephosphorylation

Question: What about the “phosphorylation of mTOR S2448” value [4] of the same compound?
Answer: inhibited; also recorded: dephosphorylation

Question: And the Akt phosphorylation ([5]; 25 mM, FIG. 8C)?
Answer: had little effect

Question: What about the “T172 phosphorylation in AMPK” value ([6]; FIG. 8D) of the same compound?
Answer: dramatic increase; also recorded: induces phosphorylation

Question: And the “AMPK activation as a function of treatment time” value ([6]; time course, FIG. 8E)?
Answer: rapid AMPK activation

Question: And the “mobility shift of TSC2” value ([7]; FIG. 11A)?
Answer: mobility shift

Question: And the “phosphorylation of TSC2 phosphopeptides” value ([8]; 25 and 40 mM, FIG. 12A)?
Answer: enhanced phosphorylation of several peptides; also recorded: induce TSC2 phosphorylation on multiple spots

Question: And the ATP levels ([9]; FIG. 8F)?
Answer: statistically significant reduction; also recorded: decreases

Question: What about the AMP/ATP ratio ([9]; FIG. 8G) of the same compound?
Answer: increases

Question: What about the “interaction between endogenous AMPK and overexpressed TSC2” value ([10]; FIG. 9D) of the same compound?
Answer: enhances the interaction

Question: And the “interaction between endogenous AMPK and TSC2 (co-immunoprecipitation)” value ([10]; HEK293 cells, FIG. 9A, B)?
Answer: interact preferentially; also recorded: enhanced; also recorded: stimulates the interaction

Question: And the cell size [11]?
Answer: decreases cell size; also recorded: significantly decreased cell size

Question: What about the “mobility of TSC1” value [12] of the same compound?
Answer: did not alter the mobility

Question: And the S6K phosphorylation [13]?
Answer: inhibition

Question: And the 4EBP1 phosphorylation [14]?
Answer: inhibition

Question: What about the AMPK activation [15] of the same compound?
Answer: activate AMPK

Question: What about the “reduction of intracellular ATP levels” value [16] of the same compound?
Answer: 20 to 50%

Question: And the “phosphorylation of eEF2” value [17]?
Answer: increase phosphorylation

Question: What about the S6K activity [18] of the same compound?
Answer: inhibit S6K activity

Question: Which AMPK activation [15] does the source give for `NC(=O)c1ncn([C@@H]2O[C@H](COP(=O)(O)O)[C@@H](O)[C@H]2O)c1N` [AICAR, 5-aminoimidazole-4-carboxyamide ribonucleotide] here?
Answer: activate AMPK

Question: And the “phosphorylation of eEF2” value [17]?
Answer: increase phosphorylation

Question: And the S6K activity [18]?
Answer: inhibit S6K activity

Question: Which results are given for `c1cc(-c2cnn3cc(-c4ccc(OCCN5CCCCC5)cc4)cnc23)ccn1` [Compound C]?
Answer: S6K dephosphorylation induced by glucose deprivation ([1]; FIG. 11F, listed as AMPK inhibitor): significantly blocked; also recorded: partially blocks; inhibitory effect of 2-DG on S6K phosphorylation ([1]; HEK 293 cells, FIG. 11E, listed as AMPK inhibitor): significantly reversed; also recorded: blocks the 2-DG induced dephosphorylation; Akt phosphorylation ([5]; HEK 293 cells, AMPK inhibitor treatment): had no effect; mobility of TSC2 / 2-DG induced mobility shift [7]: blocks the 2-DG induced mobility shift; mobility of TSC2 / 2-DG induced mobility shift ([7]; listed as compound C): increased the mobility

Question: For `N#CC(C#N)=NNc1ccc(OC(F)(F)F)cc1` [FCCP], which S6K phosphorylation [1] is on record?
Answer: caused a decrease

Question: What about the “phosphorylation of S6K” value [1] of the same compound?
Answer: caused a dephosphorylation

Question: What about the “phosphorylation of 4EBP1” value [2] of the same compound?
Answer: caused a dephosphorylation

Question: What does the source list for `CC(=O)c1c(O)c(C)c(O)c(Cc2c(O)c3c(c(C(=O)/C=C/c4ccccc4)c2O)OC(C)(C)C=C3)c1O` [Rottlerin]?
Answer: S6K phosphorylation ([1]; EEF4 (TSC2+/+) fibroblasts, FIG. 10F): caused a decrease; phosphorylation of S6K [1, 23]: caused a dephosphorylation; phosphorylation of 4EBP1 [2, 23]: caused a dephosphorylation

Question: For `COc1cc([C@@H]2c3cc4c(cc3[C@@H](O[C@@H]3O[C@@H]5CO[C@@H](C)O[C@H]5[C@H](O)[C@H]3O)[C@H]3COC(=O)[C@H]23)OCO4)cc(OC)c1O` [etoposide], which cell death [19] is on record?
Answer: caused cell death

Question: For `OC[C@@H](O)[C@@H](O)[C@H](O)[C@H](O)CO` [mannitol], which “phosphorylation of S6K on T389” value ([1]; 25 mM, FIG. 8C) is on record?
Answer: had little effect

Question: What about the “phosphorylation of S6K” value ([1]; 100 mM, FIG. 8C) of the same compound?
Answer: significantly inhibited

Question: Which “phosphorylation of Thr 389 in S6K-dC104” value [20] does the source give for `CO[C@H]1C[C@@H]2CC[C@@H](C)[C@@](O)(O2)C(=O)C(=O)N2CCCC[C@H]2C(=O)O[C@H]([C@H](C)C[C@@H]2CC[C@@H](O)[C@H](OC)C2)CC(=O)[C@H](C)/C=C(\C)[C@@H](O)[C@@H](OC)C(=O)[C@H](C)C[C@H](C)/C=C/C=C/C=C/1C` [rapamycin] here?
Answer: not inhibited

Question: What does the source list for “insulin: stimulus of the insulin-Akt pathway, used at 400 nM”?
Answer: phosphorylation of Thr 389, Thr 421 and Ser 424 of S6K ([1]; FIG. 1b): stimulated; phosphorylation of TSC2 phosphopeptides ([8]; insulin (400 nM), LY294002 or rapamycin (20 nM), FIG. 3c): slightly increased phosphorylation
